Experimental data published in ChEMBL document CHEMBL6083206, “SLL-1A-16 suppresses proliferation and induces autophagy in non-small-cell lung cancer cells via the AKT/mTOR signaling pathway” (RSC Med Chem, 2024).
Activity calls are given as the source filed them. The calls are words filed in the database; no cut-off is given here.

Tests used:
A549 [1] = assay: Induction of apoptosis in human A549 cells assessed as late apoptotic cells at 10 uM incubated for 24 hrs by Annexin V-FITC/PI staining based flow cytometric analysis (reference value: 2.29 %); format: functional
A549 [2] = assay: Inhibition of colony formation in human A549 cells at 10 to 30 uM incubated for 24 hrs by giemsa staining based analysis; format: functional, cell-based; conditions: dose 10-30 µM
NCI-H460 [3] = assay: Antiproliferative activity against human NCI-H460 cells assessed as reduction in cell viability incubated for 48 hrs by CCK8 assay; format: functional, cell-based; conditions: NCI-H460, 48 h
BEAS-2B = assay: Cytotoxicity against human BEAS-2B cells assessed as inhibition of cell viability at 3 to 300 uM incubated for 48 hrs by CCK8 assay; format: toxicity, cell-based; conditions: dose 3-300 µM
A549 [4] = assay: Inhibition of Akt/mTOR signaling pathway in human A549 cells assessed as decrease in phosphorylated PRAS40 expression in presence of temsirolimus by Western blot analysis; format: cell-based
A549 [5] = assay: Cell cycle arrest in human A549 cells assessed as accumulation of cells at G1 phase at 30 uM incubated for 24 hrs by PI staining based flow cytometric analysis (reference value: 56.42 +/- 1.36 %); format: functional
A549 [6] = assay: Induction of apoptosis in human A549 cells assessed as decrease in Bcl2 expression at 10 to 30 uM by Western blot analysis; format: functional, cell-based; conditions: dose 10-30 µM
NCI-H460 [7] = assay: Inhibition of Akt/mTOR signaling pathway in human NCI-H460 cells assessed as decrease in phosphorylated PRAS40 expression in presence of temsirolimus by Western blot analysis; format: cell-based
[8] = system: Gefitinib-resistant A549/G cell; assay: Inhibition of Akt/mTOR signaling pathway in human Gefitinib-resistant A549/G cell assessed as decrease in mTOR expression in presence of gefitinib by Western blot analysis; format: cell-based
NCI-H460 [9] = assay: Inhibition of colony formation in human NCI-H460 cells at 10 to 30 uM incubated for 24 hrs by giemsa staining based analysis; format: functional, cell-based; conditions: dose 10-30 µM
A549 [10] = assay: Induction of apoptosis in human A549 cells assessed as upregulation of Bax expression at 10 to 30 uM by Western blot analysis; format: functional, cell-based; conditions: dose 10-30 µM
NCI-H460 [11] = assay: Inhibition of Akt/mTOR signalling pathway in human NCI-H460 cells assessed as decrease in mTOR expression by Western blot analysis; format: cell-based; conditions: dose 10-30 µM
A549 [12] = assay: Induction of autophagy in human A549 cells assessed as increase in LC3-II expression at 10 to 30 uM incubated for 24 hrs by Western blot analysis; format: functional, cell-based; conditions: dose 10-30 µM
[13] = system: Gefitinib-resistant A549/G cell; assay: Inhibition of Akt/mTOR signaling pathway in human Gefitinib-resistant A549/G cell assessed as decrease in phosphorylated […] in presence of gefitinib by Western blot analysis; format: cell-based
NCI-H460 [14] = assay: Inhibition of Akt/mTOR signalling pathway in human NCI-H460 cells assessed as decrease in phosphorylated 4EBP1 expression by Western blot analysis; format: cell-based; conditions: dose 10-30 µM
BGC-823 = assay: Antiproliferative activity against human BGC-823 cells assessed as inhibition of cell proliferation at 3 to 300 uM incubated for 48 hrs by CCK8 assay; format: functional, cell-based; conditions: dose 3-300 µM
A549 [15] = assay: Cell cycle arrest in human A549 cells assessed as downregulation of cyclin D1 expression at 10 to 30 uM by Western blot analysis; format: functional, cell-based; conditions: dose 10-30 µM
A549 [16] = assay: Induction of apoptosis in human A549 cells assessed as upregulation of cleaved caspase 3 expression at 10 to 30 uM by Western blot analysis; format: functional, cell-based; conditions: dose 10-30 µM
NCI-H460 [17] = assay: Induction of autophagy in human NCI-H460 cells assessed as increase in Atg5 expression at 10 to 30 uM incubated for 24 hrs by Western blot analysis; format: functional, cell-based; conditions: dose 10-30 µM
NCI-H460 [18] = assay: Inhibition of Akt/mTOR signaling pathway in human NCI-H460 cells assessed as decrease in mTOR expression in presence of temsirolimus by Western blot analysis; format: cell-based
NCI-H460 [19] = assay: Induction of apoptosis in human NCI-H460 cells assessed as early apoptotic cells at 10 uM incubated for 24 hrs by Annexin V-FITC/PI staining based flow cytometric analysis (reference value: 3.22 %); format: functional
NCI-H460 [20] = assay: Induction of apoptosis in human NCI-H460 cells assessed as necrotic cells at 10 uM incubated for 24 hrs by Annexin V-FITC/PI staining based flow cytometric analysis (reference value: 0.68 %); format: functional
A549 [21] = assay: Inhibition of Akt/mTOR signalling pathway in human A549 cells assessed as decrease in phosphorylated P70 S6K expression by Western blot analysis; format: cell-based; conditions: dose 10-30 µM
A549 [22] = assay: Induction of apoptosis in human A549 cells assessed as viable cells at 10 uM incubated for 24 hrs by Annexin V-FITC/PI staining based flow cytometric analysis (reference value: 96.29 %); format: functional; conditions: read-out: Activity
NCI-H460 [23] = assay: Inhibition of Akt/mTOR signalling pathway in human NCI-H460 cells assessed as decrease in phosphorylated P70 S6k expression by Western blot analysis; format: cell-based; conditions: dose 10-30 µM
NCI-H460 [24] = assay: Induction of apoptosis in human NCI-H460 cells assessed as late apoptotic cells at 10 uM incubated for 24 hrs by Annexin V-FITC/PI staining based flow cytometric analysis (reference value: 4.15 %); format: functional
NCI-H460 [25] = assay: Induction of autophagy in human NCI-H460 cells assessed as increase in fluorescence intensity of anti-LC3 incubated for 48 hrs by immunofluorescence staining based analysis; format: functional, cell-based; conditions: dose 10-30 µM
NCI-H460 [26] = assay: Induction of apoptosis in human NCI-H460 cells assessed as late apoptotic cells at 30 uM incubated for 24 hrs by Annexin V-FITC/PI staining based flow cytometric analysis (reference value: 4.15 %); format: functional
A549 [27] = assay: Antitumor activity against human A549 cells xenografted in Balb/c nude mouse assessed as reduction in tumor growth rate at 7.5 to 15 mg/kg, ip administered for 14 days; format: functional, organism-based; conditions: dose 7.5-15 mg/kg, time 14.0 day
A549 [28] = assay: Inhibition of Akt/mTOR signalling pathway in human A549 cells assessed as decrease in phosphorylated 4EBP1 expression by Western blot analysis; format: cell-based; conditions: dose 10-30 µM
NCI-H460 [29] = assay: Induction of autophagy in human NCI-H460 cells assessed as increase in LC3-II expression at 10 to 30 uM incubated for 24 hrs by Western blot analysis; format: functional, cell-based; conditions: dose 10-30 µM
A549 [30] = assay: Induction of autophagy in human A549 cells assessed as increase in fluorescence intensity of anti-LC3 incubated for 48 hrs by immunofluorescence staining based analysis; format: functional, cell-based; conditions: dose 10-30 µM
A549 [31] = assay: Inhibition of Akt/mTOR signalling pathway in human A549 cells assessed as decrease in phosphorylated PRAS40 expression by Western blot analysis; format: cell-based; conditions: dose 10-30 µM
NCI-H460 [32] = assay: Cell cycle arrest in human NCI-H460 cells assessed as downregulation of cyclin D1 expression at 10 to 30 uM by Western blot analysis; format: functional, cell-based; conditions: dose 10-30 µM
A549 [33] = assay: Induction of apoptosis in human A549 cells assessed as early apoptotic cells at 30 uM incubated for 24 hrs by Annexin V-FITC/PI staining based flow cytometric analysis (reference value: 0.44 %); format: functional
NCI-H460 [34] = assay: Induction of apoptosis in human NCI-H460 cells assessed as necrotic cells at 30 uM incubated for 24 hrs by Annexin V-FITC/PI staining based flow cytometric analysis (reference value: 0.68 %); format: functional

N#C[Se]CCCNC(=O)c1cccnc1
Activity (A549 [1]): 8.48% | inhibition (A549 [2]): Active | IC50 (NCI-H460 [3]): 17.4 µM | Activity (BEAS-2B): Toxic | inhibition (A549 [4]): Active | Activity (A549 [5]): 78.51% | Activity (A549 [6]): Active | inhibition (NCI-H460 [7]): Active | inhibition [8]: Active | inhibition (NCI-H460 [9]): Active | Activity (A549 [10]): Active | inhibition (NCI-H460 [11]): Dose-dependent-effect; Inhibitory Ability Of Compound Is Comparable To Temsirolimus | Activity (A549 [12]): Active | inhibition [13]: Active | inhibition (NCI-H460 [14]): Dose-dependent-effect; Inhibitory Ability Of Compound Is Comparable To Temsirolimus | Activity (BGC-823): inactive | Activity (A549 [15]): Active; G1 Phase Cell Cycle Arrest Observed | Activity (A549 [16]): Active | Activity (NCI-H460 [17]): Active | inhibition (NCI-H460 [18]): Active | Activity (NCI-H460 [19]): 5.81% | Activity (NCI-H460 [20]): 3.73% | inhibition (A549 [21]): Dose-dependent-effect; Inhibitory Ability Of Compound Is Comparable To Temsirolimus | viability at 10 µM (A549 [22]): 84.8% | inhibition (NCI-H460 [23]): Dose-dependent-effect; Inhibitory Ability Of Compound Is Comparable To Temsirolimus | Activity (NCI-H460 [24]): 8.98% | Activity (NCI-H460 [25]): Dose-dependent-effect | Activity (NCI-H460 [26]): 13.81% | Activity (A549 [27]): Active; Comparable To 25 Mg/Kg Of Gemcitabine Hydrochloride | inhibition (A549 [28]): Dose-dependent-effect; Inhibitory Ability Of Compound Is Comparable To Temsirolimus | Activity (NCI-H460 [29]): Active | Activity (A549 [30]): Dose-dependent-effect | inhibition (A549 [31]): Dose-dependent-effect; Inhibitory Ability Of Compound Is Comparable To Temsirolimus | Activity (NCI-H460 [32]): Active; G1 Phase Cell Cycle Arrest Observed | Activity (A549 [33]): 4.58% | Activity (NCI-H460 [34]): 5.22%
